The values below come from PubChem BioAssay AID624167 (Sanford-Burnham Center for Chemical Genomics, 2012).

Test [1] has as its target PEG-3 (UniProt Q6IN02). Briefly: inhibition of PEG-3 promoter-driven reporter – cell-based, HeLa, luciferase, CREF/GAPDH counter-screen panel, dose response (AID 624167). The following applies: HeLa PEG-Prom luciferase reporter, overnight, CREF/GAPDH counter-screens, mean of runs.
The test system of test [2] is PEG-3. Described as above. Particulars: HeLa PEG-Prom luciferase reporter, overnight, CREF/GAPDH counter-screens.
Setting [3] is: run 1, dose range 1, individual replicate IC50 per panel.
[4] abbreviates: run 2, dose range 1, individual replicate IC50 per panel.

Calls of active or inactive are those of the source.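 How the source made its calls: active means mean IC50 for reducing PEG3 promoter reporter signal at or below a set limit, with IC50 above the limit in both counter screens; inactive means the rest, including counter screen hits.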

Chain of PEG-3 (UniProt Q6IN02) (Q6IN02 whole entry, looked up): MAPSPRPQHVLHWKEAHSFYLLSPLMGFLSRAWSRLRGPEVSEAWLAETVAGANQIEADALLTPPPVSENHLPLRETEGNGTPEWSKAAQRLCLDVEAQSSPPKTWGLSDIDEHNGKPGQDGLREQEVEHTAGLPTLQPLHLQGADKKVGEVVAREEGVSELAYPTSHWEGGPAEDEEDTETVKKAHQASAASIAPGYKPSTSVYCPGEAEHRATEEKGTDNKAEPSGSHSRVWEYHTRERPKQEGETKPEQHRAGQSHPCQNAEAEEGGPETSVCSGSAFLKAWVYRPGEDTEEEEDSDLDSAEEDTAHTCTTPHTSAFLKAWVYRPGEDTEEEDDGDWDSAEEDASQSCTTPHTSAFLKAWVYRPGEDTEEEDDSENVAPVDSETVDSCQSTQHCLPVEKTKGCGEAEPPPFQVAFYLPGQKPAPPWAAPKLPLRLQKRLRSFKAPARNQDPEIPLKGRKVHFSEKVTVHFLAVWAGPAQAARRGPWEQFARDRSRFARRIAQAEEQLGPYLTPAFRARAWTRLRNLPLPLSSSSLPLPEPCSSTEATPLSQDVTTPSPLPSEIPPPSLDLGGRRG

With `O=C(Cc1csc(Nc2nc(=S)[nH]c3ccccc23)n1)NCc1ccccc1Cl`, the IC50 in test [1] was > 100 µM (inactive); in test [2] (setting [3]), greater than 100 µM; in test [2] (setting [4]) it was greater than 100 µM.
Regarding `COc1ccc(-c2cc(C(=O)N(C)Cc3ccc(OC)c(OC)c3OC)c3ccccc3n2)cc1OC`, in test [1], the IC50 entry was “inactive”. For the same compound, the values for the concentration for half-maximal inhibition (IC50) in test [2] (setting [3]) and in test [2] (setting [4]) were 13.4 µM and 30.9 µM, respectively.
In the case of `O=C(NC1=C(NC2CCS(=O)(=O)C2)C(=O)c2ccccc2C1=O)c1ccccc1` (stereo unspecified), the IC50 in test [1] was 18.9 µM; in test [2] (setting [3]), 19.1 µM; in test [2] (setting [4]), 18.7 µM.
The like results for `Cc1ccc(C)c(NP(=O)(Oc2ccccc2)Oc2ccccc2)c1` were, in that order, “inactive”, 28.7 µM and 19.1 µM.
The like results for `CCOC(=O)c1sc2nc(CSc3ccccc3)nc(N3CCCN(C)CC3)c2c1C` were, in that order, 19.4 µM, 19.4 µM and 19.4 µM.
For `Cc1nc(-c2ccc(F)cc2)c(CC(=O)N(C)CC(=O)Nc2ccc(Cl)c(C(F)(F)F)c2)s1` the same measures were “inactive”, 26 µM and 33.8 µM.
As to `COc1cc(C(=O)/C=C/c2cccnc2)c([N+](=O)[O-])cc1OC`, the 50% inhibitory concentration (IC50) in test [1] was 18.3 µM; in test [2] (setting [3]) it was 19.3 µM; in test [2] (setting [4]), 17.3 µM.
`COc1cc(CNCCN2CCOCC2)ccc1OCc1ccc(Cl)cc1Cl`: the concentration for half-maximal inhibition (IC50) was 19.8 µM in test [1], 20.1 µM in test [2] (setting [3]) and 19.5 µM in test [2] (setting [4]).
With `CN(C)C(=O)c1cccc(-c2cnc3c(NC=O)cc(-c4cccc(C(F)(F)F)c4)cn23)c1`, the IC50 in test [1] is 16 µM; in test [2] (setting [3]), 11.6 µM; in test [2] (setting [4]) it was 20.3 µM.
The like results for `Cc1nc2c(OCc3ccc(OC(F)F)cc3)cccn2c1N(C)C(=O)CCC1CCCC1` were, in that order, “inactive”, 28.9 µM and 23.5 µM.
The like results for `COc1cc(/C=C/c2ccc3cccc(O)c3n2)c(Br)cc1O` were, in that order, “inactive”, 63.2 µM and 42.7 µM.
The like results for `CN(C)CCNc1ncnc2c1sc1nc(N3CCCC3)c3c(c12)CC(C)(C)OC3` were, in that order, “inactive”, 32.7 µM and 13.1 µM.
With `CNC(=O)c1ccsc1NC(=O)c1ccc(S(=O)(=O)N2CCc3ccccc32)cc1`, the figures for the half-maximal inhibitory concentration (IC50) in test [1], in test [2] (setting [3]) and in test [2] (setting [4]) were 16.5 µM, 19.2 µM and 13.9 µM, respectively.
For `Cc1cc(/C=c2/sc3nc4ccccc4n3c2=O)c(C)n1-c1ccccn1` the same measures were “inactive”, 21.7 µM and 30.9 µM.
In the case of `O=C(Nc1cccc(S(=O)(=O)N2CCOCC2)c1)c1ccc2c(=O)n3c(nc2c1)CCCCC3`, the IC50 result in test [1] was “inactive”. The IC50 was determined as 25.3 µM in test [2] (setting [3]) and 43.1 µM in test [2] (setting [4]).
Take `O=C(NC1CCCCC1)Sc1ccc(Cl)cc1`: the IC50 result in test [1] was “inactive”. The results for the 50% inhibitory concentration (IC50) in test [2] (setting [3]) and in test [2] (setting [4]) were 30.7 µM and 19.3 µM, respectively.
The like results for `N/C(=N\OC(=O)c1ccccc1)C(Cc1ccccc1)C(=O)NOC(=O)c1ccccc1` (stereo unspecified) were, in that order, 13 µM, 15 µM and 11 µM.
For `COC(=O)c1ccc(OCC2c3cc(OC)c(OC)cc3CCN2C(=O)c2ccco2)cc1` (stereo unspecified) the same measures were 19.4 µM, 25.2 µM and 13.6 µM.
The like results for `Cc1cc2c(c(/C=C/C(=O)c3ccccc3)c1)OC1(C=C2)Oc2ccccc2C(=O)N1C` (stereo unspecified) were, in that order, 18 µM, 20.4 µM and 15.5 µM.
Consider `CNCC[C@H](Oc1cccc2ccccc12)c1cccs1`, for which the IC50 is 17.7 µM in test [1], 18.8 µM in test [2] (setting [3]) and 16.6 µM in test [2] (setting [4]).
`CC1CCCC(C)N1C(=C(Cl)Cl)C(=C1SCCS1)[N+](=O)[O-]` (stereo unspecified): the 50% inhibitory concentration (IC50) is 14 µM in test [1], 11.5 µM in test [2] (setting [3]) and 16.6 µM in test [2] (setting [4]).
For the compound `CCOC(=O)C1=C(COCCN)NC(C)=C(C(=O)OC)C1c1ccccc1Cl` (stereo unspecified), the figures for the IC50 in test [1], in test [2] (setting [3]) and in test [2] (setting [4]) were 15.6 µM, 19 µM and 12.1 µM, respectively.
For `CCCn1c(=N)n(CC(=O)c2ccc(Cl)cc2)c2ccccc21` the same measures were “inactive”, 19.1 µM and 49.4 µM.
Consider `O=c1c2ccccc2nc(CSc2ncnc3nc[nH]c23)n1-c1ccc(Cl)c(Cl)c1`, for which, in test [1], the IC50 entry was “inactive”. The IC50 in test [2] (setting [3]) was 8.77 µM; in test [2] (setting [4]), greater than 100 µM.
The like results for `C/C(=N\N=C(N)N)c1ccc(Cl)cc1Cl` were, in that order, 18 µM, 18.7 µM and 17.2 µM.
On to `CCn1cc(CN2CCC(C(=O)Nc3cccc(-c4cccc(Cl)c4)c3)CC2)c(C)n1`, for which the half-maximal inhibitory concentration (IC50) in test [1] was 14.5 µM; in test [2] (setting [3]), 17.7 µM; in test [2] (setting [4]), 11.2 µM.
For `Oc1cccc(C(Nc2nccs2)c2ccc3cccnc3c2O)c1` (stereo unspecified) the same measures were “inactive”, greater than 100 µM and 31.1 µM.
